These results are taken from ChEMBL document CHEMBL5126582, “Discovery of (2-(pyrrolidin-1-yl)thieno[3,2-d]pyrimidin-4-yl)(3,4,5-trimethoxyphenyl)methanone as a novel potent tubulin depolymerizing and vascular disrupting agent” (Eur J Med Chem, 2022).

In general, IC50 refers to the concentration that gives 50% inhibition.

Assay [1] concerns HL-60. Description: Antiproliferative activity against human HL-60 cells assessed as reduction in cell viability incubated for 48 hrs by MTS assay. The assay is classed as functional, cell-based. The conditions noted are these: HL-60, 48 h. For orientation: Tetrazolium assays rely on reduction of a dye to a coloured formazan, in cell work by metabolically active cells.
In assay [2] the test system is HCT-116. Description: Antiproliferative activity against human HCT-116 cells assessed as reduction in cell viability incubated for 48 hrs by MTS assay. The format is functional, cell-based. The settings on record: HCT-116, 48 h.
Assay [3] has as its system HeLa. In words: Antiproliferative activity against human HeLa cells assessed as reduction in cell viability incubated for 48 hrs by MTS assay. The assay is classed as functional, cell-based.
The test system of assay [4] is HeLa. Description: Induction of apoptosis in human HeLa cells assessed as viable cells at 10 nM incubated for 24 hrs by annexin V FITC and propidium iodide staining based flow cytometry analysis (reference value: 85.7%). The format is functional. The conditions noted are these: read-out: Activity. For orientation: Flow cytometry measures light scatter and fluorescence of single cells or particles in a stream.

In assay [5] the test system is HeLa. In words: Induction of apoptosis in human HeLa cells assessed as early apoptotic cells at 10 nM incubated for 24 hrs by annexin V FITC and propidium iodide staining based flow cytometry analysis (reference value: 0.12%). The assay is classed as functional.
Assay [6] concerns HeLa. Description: Induction of apoptosis in human HeLa cells assessed as late apoptotic cells at 10 nM incubated for 24 hrs by annexin V FITC and propidium iodide staining based flow cytometry analysis (reference value: 0.05%). The assay is classed as functional.
Assay [7] deals with HeLa. Description: Induction of apoptosis in human HeLa cells assessed as necrotic cells at 10 nM incubated for 24 hrs by annexin V FITC and propidium iodide staining based flow cytometry analysis (reference value: 1.14 %). The assay is classed as functional.
The test system of assay [8] is HeLa. Description: Induction of apoptosis in human HeLa cells assessed as viable cells at 10 nM incubated for 48 hrs by annexin V FITC and propidium iodide staining based flow cytometry analysis (reference value: 85.5%). The assay is classed as functional. The settings on record: read-out: Activity.
Assay [9] relates to HeLa. Description: Induction of apoptosis in human HeLa cells assessed as early apoptotic cells at 10 nM incubated for 48 hrs by annexin V FITC and propidium iodide staining based flow cytometry analysis (reference value: 6.01%). The assay is classed as functional.
Assay [10] has as its system HeLa. In words: Induction of apoptosis in human HeLa cells assessed as late apoptotic cells at 10 nM incubated for 48 hrs by annexin V FITC and propidium iodide staining based flow cytometry analysis (reference value: 8.87%). The assay is classed as functional.
Assay [11] relates to HeLa. Description: Induction of apoptosis in human HeLa cells assessed as necrotic cells at 10 nM incubated for 48 hrs by annexin V FITC and propidium iodide staining based flow cytometry analysis (reference value: 1.85 %). The format is functional.
For assay [12], the system named is HeLa. In words: Induction of apoptosis in human HeLa cells assessed as viable cells at 10 nM incubated for 72 hrs by annexin V FITC and propidium iodide staining based flow cytometry analysis (reference value: 90.1%). The format is functional. The settings on record: read-out: Activity.
In assay [13] the test system is HeLa. Description: Induction of apoptosis in human HeLa cells assessed as early apoptotic cells at 10 nM incubated for 72 hrs by annexin V FITC and propidium iodide staining based flow cytometry analysis (reference value: 2.36%). The format is functional.
Assay [14] has as its system HeLa. Description: Induction of apoptosis in human HeLa cells assessed as late apoptotic cells at 10 nM incubated for 72 hrs by annexin V FITC and propidium iodide staining based flow cytometry analysis (reference value: 4.70%). The assay is classed as functional.
Assay [15] relates to HeLa. In words: Induction of apoptosis in human HeLa cells assessed as necrotic cells at 10 nM incubated for 72 hrs by annexin V FITC and propidium iodide staining based flow cytometry analysis (reference value: 2.88 %). The format is functional.
In assay [16] the test system is HeLa. Description: Induction of mitochondrial membrane potential alteration in human HeLa cells assessed as viable cells at 10 nM measured after 48 hrs by JC1 staining-based flow cytometry analysis (reference value: 90.9%). The assay is classed as functional. The settings on record: read-out: Activity.
The test system of assay [17] is HeLa. In words: Induction of mitochondrial membrane potential alteration in human HeLa cells assessed as early apoptotic cells at 10 nM measured after 48 hrs by JC1 staining-based flow cytometry analysis (reference value: 9.07 %). The format is functional.
The test system of assay [18] is HeLa. In words: Induction of mitochondrial membrane potential alteration in human HeLa cells assessed as late apoptotic cells at 10 nM measured after 48 hrs by JC1 staining-based flow cytometry analysis (reference value: 0.009%). The format is functional.
Assay [19] has as its system HeLa. Description: Induction of mitochondrial membrane potential alteration in human HeLa cells assessed as necrotic cells at 10 nM measured after 48 hrs by JC1 staining-based flow cytometry analysis (reference value: 0%). The format is functional.
For assay [20], the system named is A549. Description: cells. The conditions noted are these: Homo sapiens, A549, 48 h.
Description: Antiproliferative activity against human A549 cells assessed as reduction in cell viability incubated for 48 hrs by MTS assay

SMILES strings stand for the structures.

Take `COc1ccc(/C=C\c2cc(OC)c(OC)c(OC)c2)cc1O` [COMBRETASTATIN A4]: the IC50 came to 1.3 nM in assay [1], 1.1 nM in assay [2], 1.4 nM in assay [3] and 7.5 nM in assay [20]. Moreover, the viability at 0.01 µM was 79.4% in assay [4], 16.9% in [8], 25.1% in [12] and 82% in assay [16]. The Activity in assay [5] was determined as 7.41%; in assay [6] it was 7.5%; in [7] it was 8.87%; in [9], 20.1%; in assay [10], 51.9%; in [11], 11.2%. Also, the Activity in assay [13] came to 17%; in [14], 31.8%; in [15], 23.3%; in assay [17] it was 18%; in assay [18], 0%; in assay [19], 0.011%.
